Like-named read-outs stand apart in the source and are kept apart here.
Legend:
lenses = assay: Cataract assessment: opacity of cultured lenses exposed to hydrogen peroxide; set-up: species or system rat; conditions: 100 nM test compound with 5 mM hydrogen peroxide; 24 hr; clear: 0, slightly opaque: 1, moderately opaque: 2
Experimental: The lenses were isolated from Sprague-Dawley rats (male, purchased from SLC Japan), and the lenses were pre-cultured in a medium (Medium-199: GIBCO BRL) for 3 hr and the lenses maintaining transparency were selected and used in the experiment. The crystalline lenses were cultured for 24 hr in the following 3 groups; 1) in Medium-199 (3 mL), 2) in Medium-199 (3 mL) containing hydrogen peroxide (final concentration: 5 mM) and 3) in Medium-199 (3 mL) containing the test compound (final concentration: 100 nM), DMSO (final concentration: 0.1% v/v) and hydrogen peroxide (final concentration: 5 mM). After finalising culturing, the opacity of the lens was scored based on the following criteria: clear: 0, slightly opaque: 1, moderately opaque: 2. Thus the improving effect of the test compound on cataracts was assessed.

TNF-α production = assay: Inhibitory activity against cytokine (TNF-α) production in LPS-stimulated RAW264.7 cells; type: cell-based, mouse; conditions: Mus musculus, RAW264.7, 15 h, 1 μM test compound, LPS 10 ng/mL
Experimental: The mouse monocyte/macrophage cell line, RAW264.7 (ATCC TIB71) was purchased from Dainippon Pharmaceutical Co., Ltd. The RAW264.7 cells were cultured in a CO2 incubator (37° C., 95% of humidity, 5% of CO2) by using the Dulbecco's modified Eagle's medium (DMEM medium; GIBCO, Cat. No. 11995-040) containing bovine fetal serum (the final concentration: 10% (v/v), MOREGATE, lot No. 474030), penicillin G (the final concentration: 50 units/mL […], GIBCO) and streptomycin (the final concentration: 20 μg/mL, GIBCO).
Sixty (60) μL of the RAW264.7 cell suspension (83,000 cells/mL) were plated into each well of a 96-well microplate (5,000 cells/well). After the cells were cultured for 4 hr in a CO2 incubator, 40 μL of DMEM medium containing 25 ng/mL of LPS (Sigma-Aldrich Japan K. K.) were added into each well (final concentration of LPS: 10 ng/mL). The test compound dissolved in DMSO at a concentration of 1 mM was diluted with DMEM medium by 20 times. Then 2 μL/well of the diluted solution were added to wells containing the plated cells (final concentration of the test compound: 1 μM). As the control, 2 μL/well of DMSO diluted with DMEM medium by 20 times were added to wells containing the plated cells either with LPS (final concentration: 10 ng/mL) or without LPS. After these cells were cultured in a CO2 incubator for 15 hr, the supernatant of the medium was recovered. The amount of mTNF-α in the medium supernatant was determined with a mouse TNF-α ELISA kit Quantikine M (R&D System), according to the experiment protocol attached with the kit.
The inhibitory activity of the test compound against TNF-α production was calculated according to the following equation.
A: The amount of TNF-α in the presence of test compound
B: The amount of TNF-α in the control without LPS
C: The amount of TNF-α in the control with 10 ng/mL of LPS
Inhibitory Activity of the Test Compound against TNF-α Production (%)=100−(A−B)/(C−B)×100

Balb/c mice = assay: Prevention of concanavalin A liver injury; type: in vivo, mouse; conditions: Mus musculus, po, 24 h, 10 mg/mL suspension at 10 mL/kg, 30 min prior to Con A, plasma 24 hr after Con A
Experimental: Five (5) Balb/c mice (female, 6-8 weeks old) per group were used. Liver injury was elicited in the mouse by injection of concanavalin A (Con A) dissolved in saline (2.0 mg/mL) into the tail vein at a volume of 10 mL/kg of the solution (Hepatology, 21, 190-198 (1995)).
The test compounds were suspended in distilled water containing 0.5% CMC, at a concentration of 10 mg/mL. This suspended solution was orally administered to the mouse at a volume of 10 mL/kg, 30 min prior to injection of Con A (group A).
Apart from this group, distilled water containing 0.5% CMC powder, instead of the test compound, was orally administered in the second group of mice (group B). In the 3rd group, nothing was given to the mice (group C).
Twenty four (24) hr after the injection of Con A, blood was collected from the abdominal aorta of the mice and the plasma was isolated while mixing with heparin. Activities of glutamic acid oxaloacetic acid transaminase (AST) and glutamic acid pyruvic acid transaminase (ALT) in the plasma were determined according to the methods described by Nagakawa et al. (J. Pharmacol. Exp. Ther., 264, 496-500 (1993)). From the values obtained inhibitory rates of the test compound against AST and ALT levels which had been increased by injection of Con A, were obtained based on the following equation.
Inhibitory Rate(%)={1−[(A−C)/(B−C)]}×100
A: The average level of AST or ALT in the group A
B: The average level of AST or ALT in the group B
C: The average level of AST or ALT in the group C

[1] = system: Mouse preadipocyte strain 3T3-L1; assay: Inhibition of differentiation as an indication of acetic acid uptake; type: cell-based; conditions: Mus musculus, 3T3-L1, 0.1 μM test substance, control (0.01% dimethylsulfoxide) = 100%, read-out: Rate of Uptake (%) of [2-14C] acetic acid
In short: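 Differentiation is indexed by 1 hr [2-14C]acetic acid incorporation, measured by scintillation counting and given as uptake relative to 0.01% DMSO control (100%). Mouse 3T3-L1 preadipocytes, pre-grown 10 days, received 0.1 μM test substance throughout a 4-day insulin/IBMX/dexamethasone induction, followed by 2 days' maintenance culture.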

[2] = read-out: Preventing rate against liver injury, ALT (%)
[3] = read-out: Preventing rate against liver injury, AST (%)

Structure (SMILES) | opacity of the lens (average score) (lenses) | inhibition at 1 µM (TNF-α production) | inhibition in vivo at 10000 µg/mL, 100 mg/kg (Balb/c mice; [2]) | inhibition in vivo at 10000 µg/mL, 100 mg/kg (Balb/c mice; [3]) | activity at 0.1 µM [1]
CN(C)c1ccc(-c2ccc(NC(=O)c3cc([N+](=O)[O-])ccc3Cl)cc2)cc1 [Example 53, N-[4-(4-Dimethylaminophenyl)phenyl]-(2-chloro-5-nitrophenyl)carboxamide] | 1.0 | 15.6% | 22% | 1.7% | 76.2%
CC(C)(C)c1cc(-c2csc(NC(=O)c3cc([N+](=O)[O-])ccc3Cl)n2)cc(C(C)(C)C)c1O [Example 139, N-[4-(3,5-di-tert-Butyl-4-hydroxyphenyl)thiazol-2-yl]-(2-chloro-5-nitrophenyl)carboxamide] | 1.0 | 42.7% | 54% | 48.4% | 59.2%

From patent US20030134859A1 (SANKYO COMPANY, LIMITED, priority 2000, published 2003)
